The values that follow come from US9012461B2, “FAK inhibitors” (priority 2011, dated 2015).

One experiment has as its system MDA-231-LNA cells. Particulars: 3 days.
In experiment [1] the test system is HeyA8, SKOV3ip1, and HeyA8-MDR models. Particulars: compared with vehicle-treated controls; cited from earlier work.
The test system of experiment [2] is taxane-sensitive (SKOV3ip1 and HeyA8) and taxane-resistant (HeyA8-MDR) ovarian cancer cell lines. Particulars: in vitro; cited from earlier work.
The test system of experiment [3] is MDA-231-LNA primary tumours. Nature of the experiment: Combination study, MDA-231-LNA orthotopic xenograft model. In kind it is in vivo, Balb/c SCID mice. Particulars: Avastin 12.5 mg/kg i.p. twice weekly; compound 16 (citrate salt) p.o. 54 mg/kg BID.
Description: Mice harvested for tumour immunohistochemical analysis were not included in Kaplan-Meier analysis.
All bars represent the mean±S.E.M of n=7 mice per group. *p<0.05 and **p<0.01 by one-way ANOVA.

Where only a bound is given, the exact number is not on record here.

In the case of `NC(=O)Cc1cccnc1CCc1nc(Nc2ccc(C3CCNCC3)cc2)ncc1C(F)(F)F` [Compound 32, 2-(2-(2-(2-((4-(Piperidin-4-yl)phenyl)amino)-5-(trifluoromethyl)pyrimidin-4-yl)ethyl)pyridin-3-yl)acetamide], in the experiment with MDA-231-LNA cells, the IC50 (in general, the concentration that inhibits the measured activity by half) was > 5 µM.

As to `CNC(=O)c1ccccc1Nc1nc(Nc2ccc(N3CCOCC3)cc2OC)ncc1Cl` [TAE226], the “reduction of tumour burden” value in experiment [1] is listed as 46-64%. Also, in experiment [2], the “phosphorylation of FAK” value was “inhibited the phosphorylation of FAK at both Y397 and Y861 sites”.

Avastin: the median survival time in experiment [3] is listed as 24 days.

Turning to `NC(=O)Cc1ccccc1CCc1nc(Nc2ccc(C3CCNC3)cc2)ncc1C(F)(F)F` (stereo not drawn) [Compound 35, 2-(2-(2-(2-((4-(pyrrolidin-3-yl)phenyl)amino)-5-(trifluoromethyl)pyrimidin-4-yl)ethyl)phenyl)acetamide], the IC50 in the experiment with MDA-231-LNA cells is > 10 µM.

Regarding `CCN1CCC(c2ccc(Nc3ncc(C(F)(F)F)c(CCc4ncccc4CC(N)=O)n3)cc2)CC1` [Compound 38, 2-(2-(2-(2-((4-(1-Ethylpiperidin-4-yl)phenyl)amino)-5-(trifluoromethyl)pyrimidin-4-yl)ethyl)pyridin-3-yl)acetamide], in the experiment on MDA-231-LNA cells, the half-maximal inhibitory concentration (IC50) was > 10 µM.
